# US20260250627A1, “A new bacterial strain Weissella cibaria, a composition comprising it, a pharmaceutical composition for use, a dietary supplement, a probiotic preparation, a bacterial starter culture for making bread, sourdough, bread, a method for the production of bread, a method for microbiological production …” (INSTYTUT BIOCHEMII I BIOFIZVKI PAN, priority 2023, published 2026)
# Test system: IBB3394 strain (KKP 2094p)
# Assay: Antibiotic sensitivity test with E-test strips (Example 11)
# Type: cell-based, Weissella cibaria
# Settings: E-test strips, IST-MRS, 30° C., 48 h, aerobic
# Method: The safety assessment of the selected strain of Weissella sp. IBB3394 was carried out by testing antibiotic susceptibility using E-test strips (bioMerieux) in accordance with the manufacturer's recommendations. The tested strain was seeded on IST-MRS solid medium and incubated at 30° C. in aerobic conditions. […] Antibiotic strips were placed on the surface of the plate and the plates were incubated at 30° C. for 48 h in aerobic conditions.
row,Compound,Minimum inhibitory concentration (MIC) IBB3394
1,gentamicin [GM],4 µg/mL

# Same assay, conditions: Weissella cibaria, 48 h, read-out: Minimum inhibitory concentration (MIC) IBB3394
row,Compound,MIC
1,"CN[C@H](CC(C)C)C(=O)N[C@H]1C(=O)N[C@@H](CC(N)=O)C(=O)N[C@H]2C(=O)N[C@H]3C(=O)N[C@H](C(=O)N[C@H](C(=O)O)c4cc(O)cc(O)c4-c4cc3ccc4O)[C@H](O)c3ccc(c(Cl)c3)Oc3cc2cc(c3O[C@@H]2O[C@H](CO)[C@@H](O)[C@H](O)[C@H]2O[C@H]2C[C@](C)(N)[C@H](O)[C@H](C)O2)Oc2ccc(cc2Cl)[C@H]1O [VA, vancomycin]",> 256 µg/mL

# Same assay, conditions: Weissella cibaria; E-test strips, IST-MRS, 30° C., 48 h, aerobic; read-out: Minimum inhibitory concentration (MIC) IBB3394
row,Compound,MIC
1,"CC1(C)S[C@@H]2[C@H](NC(=O)[C@H](N)c3ccccc3)C(=O)N2[C@H]1C(=O)O [AM, ampicillin]",0.38 to 0.5 µg/mL
2,"O=C(N[C@H](CO)[C@H](O)c1ccc([N+](=O)[O-])cc1)C(Cl)Cl [CL, chloramphenicol]",2 to 3 µg/mL
3,"CCC[C@@H]1C[C@@H](C(=O)N[C@@H]([C@H]2O[C@H](SC)[C@H](O)[C@@H](O)[C@H]2O)[C@H](C)Cl)N(C)C1 [CM, clindamycin]",0.016 µg/mL
4,"CC[C@H]1OC(=O)[C@H](C)[C@@H](O[C@H]2C[C@@](C)(OC)[C@@H](O)[C@H](C)O2)[C@H](C)[C@@H](O[C@@H]2O[C@H](C)C[C@H](N(C)C)[C@H]2O)[C@](C)(O)C[C@@H](C)C(=O)[C@H](C)[C@@H](O)[C@]1(C)O [EM, erythromycin]",0.094 µg/mL
5,"NC[C@H]1O[C@H](O[C@H]2[C@H](O)[C@@H](O[C@H]3O[C@H](CO)[C@@H](O)[C@H](N)[C@H]3O)[C@H](N)C[C@@H]2N)[C@H](O)[C@@H](O)[C@@H]1O [KM, kanamycin]",16 µg/mL
6,"[H]/N=C(/N)N[C@H]1[C@H](O)[C@@H](O)[C@H](O[C@@H]2O[C@@H](C)[C@](O)(C=O)[C@H]2O[C@@H]2O[C@@H](CO)[C@H](O)[C@@H](O)[C@@H]2NC)[C@@H](N/C(N)=N\[H])[C@@H]1O [SM, streptomycin]",8 µg/mL
7,"CN(C)[C@@H]1C(O)=C(C(N)=O)C(=O)[C@@]2(O)C(O)=C3C(=O)c4c(O)cccc4[C@@](C)(O)[C@H]3C[C@@H]12 [TC, tetracycline]",2 µg/mL
